Assay results published in patent US10597388B2, “Pyridazinone herbicides” (FMC CORPORATION, priority 2014, dated 2020).

Assays:
Assay in all cases: Test D controlled growth environment herbicide test, pre- and postemergence
Type in all cases: in vivo
[1] = tested on: Russian thistle (Salsola kali)
Summary of the method: (§1)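 Species sown in silt loam and sprayed preemergence, or grown in peat-based medium to 2–18 cm (1- to 4-leaf stage) and sprayed postemergence, with compounds in non-phytotoxic solvent plus surfactant. Visual injury scored versus controls after 14–21 d in a controlled environment, 0 (no effect) to 100 (complete control).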

[2] = tested on: bluegrass (annual bluegrass, Poa annua)
Summary of the method: as §1

[3] = tested on: bromegrass, downy (downy bromegrass, Bromus tectorum)
Summary of the method: as §1

[4] = tested on: buckwheat, wild (wild buckwheat, Polygonum convolvulus)
Summary of the method: as §1

[5] = tested on: canarygrass (Phalaris minor)
Summary of the method: as §1

[6] = tested on: chamomile (scentless chamomile, Matricaria inodora)
Summary of the method: as §1

[7] = tested on: field poppy (Papaver rhoeas)
Summary of the method: as §1

[8] = tested on: field violet (Viola arvensis)
Summary of the method: as §1

[9] = tested on: mustard, wild (wild mustard, Sinapis arvensis)
Summary of the method: as §1

[10] = tested on: oat, wild (wild oat, Avena fatua)
Summary of the method: as §1

[11] = tested on: oilseed rape (Brassica napus)
Summary of the method: as §1

[12] = tested on: radish, wild (wild radish, Raphanus raphanistrum)
Summary of the method: as §1

[13] = tested on: wheat, spring (spring wheat, Triticum aestivum)
Summary of the method: as §1

[14] = Postemergence, 31 g ai/ha, scale 0 to 100 (0 no effect, 100 complete control)
[15] = Postemergence, 125 g ai/ha, visual rating on scale 0 (no effect) to 100 (complete control), 14 to 21 d
[16] = Postemergence, 250 g ai/ha, scale 0 to 100 (0 no effect, 100 complete control)
[17] = Preemergence, 125 g ai/ha, scale 0 to 100 (0 no effect, 100 complete control)
[18] = Preemergence, 250 g ai/ha, scale 0 to 100 (0 no effect, 100 complete control)
[19] = postemergence, 62 g ai/ha, scale 0 to 100, 0 no effect, 100 complete control
[20] = Preemergence, 62 g ai/ha, scale 0 to 100 (0 no effect, 100 complete control)

CC(=O)Oc1c(C)nn(C)c(=O)c1-c1ccc(F)c2ccccc12 [Compound 90]
Russian Thistle plant response rating [1, 14]: 30
Plant response rating, Russian Thistle [1, 15]: 75
Plant response rating, Russian Thistle [1, 16]: 90
Plant response rating (scale of 0 to 100), Russian Thistle ([1]; Preemergence, 31 g ai/ha): 10
Plant response rating (scale of 0 to 100), Russian Thistle ([1]; Preemergence, 62 g ai/ha): 15
Plant response rating, Russian Thistle [1, 17]: 35
Plant response rating, Russian Thistle [1, 18]: 60
Plant response rating, Russian Thistle [1, 19]: 75
Bluegrass plant response rating [2, 14]: 5
Plant response rating, Bluegrass [2, 15]: 25
Plant response rating, Bluegrass [2, 16]: 30
Plant response rating (scale of 0 to 100), Bluegrass ([2]; Preemergence, 31 g ai/ha): 0
Plant response rating, Bluegrass [2, 20]: 40
Plant response rating, Bluegrass [2, 17]: 65
Plant response rating, Bluegrass [2, 18]: 65
Plant response rating, Bluegrass [2, 19]: 15
Bromegrass, Downy plant response rating [3, 14]: 20
Plant response rating, Bromegrass, Downy [3, 15]: 40
Plant response rating, Bromegrass, Downy [3, 16]: 55
Plant response rating (scale of 0 to 100), Bromegrass, Downy ([3]; Preemergence, 31 g ai/ha): 15
Plant response rating, Bromegrass, Downy [3, 20]: 20
Plant response rating, Bromegrass, Downy [3, 17]: 55
Plant response rating, Bromegrass, Downy [3, 18]: 95
Plant response rating, Bromegrass, Downy [3, 19]: 30
Buckwheat, Wild plant response rating [4, 14]: 80
Plant response rating, Buckwheat, Wild [4, 15]: 100
Plant response rating, Buckwheat, Wild [4, 16]: 100
Plant response rating (scale of 0 to 100), Buckwheat, Wild ([4]; Preemergence, 31 g ai/ha): 15
Plant response rating, Buckwheat, Wild [4, 17]: 40
Plant response rating, Buckwheat, Wild [4, 18]: 80
Plant response rating, Buckwheat, Wild [4, 19]: 90
Canarygrass plant response rating [5, 14]: 25
Plant response rating, Canarygrass [5, 15]: 75
Plant response rating, Canarygrass [5, 16]: 75
Plant response rating (scale of 0 to 100), Canarygrass ([5]; Preemergence, 31 g ai/ha): 50
Plant response rating (scale of 0 to 100), Canarygrass ([5]; Preemergence, 62 g ai/ha): 75
Plant response rating, Canarygrass [5, 17]: 85
Plant response rating, Canarygrass [5, 18]: 95
Plant response rating, Canarygrass [5, 19]: 45
Chamomile plant response rating [6, 14]: 70
Plant response rating, Chamomile [6, 15]: 98
Plant response rating, Chamomile [6, 16]: 100
Plant response rating (scale of 0 to 100), Chamomile ([6]; Preemergence, 31 g ai/ha): 100
Plant response rating (scale of 0 to 100), Chamomile ([6]; Preemergence, 62 g ai/ha): 100
Plant response rating, Chamomile [6, 17]: 100
Plant response rating, Chamomile [6, 18]: 100
Plant response rating, Chamomile [6, 19]: 75
Field Poppy plant response rating [7, 14]: 65
Plant response rating, Field Poppy [7, 15]: 75
Plant response rating, Field Poppy [7, 16]: 90
Plant response rating (scale of 0 to 100), Field Poppy ([7]; Preemergence, 31 g ai/ha): 15
Plant response rating (scale of 0 to 100), Field Poppy ([7]; Preemergence, 62 g ai/ha): 100
Plant response rating, Field Poppy [7, 17]: 100
Plant response rating, Field Poppy [7, 18]: 100
Plant response rating, Field Poppy [7, 19]: 70
Field Violet plant response rating [8, 14]: 90
Plant response rating, Field Violet [8, 15]: 100
Plant response rating, Field Violet [8, 16]: 100
Plant response rating (scale of 0 to 100), Field Violet ([8]; Preemergence, 31 g ai/ha): 95
Plant response rating (scale of 0 to 100), Field Violet ([8]; Preemergence, 62 g ai/ha): 95
Plant response rating, Field Violet [8, 17]: 100
Plant response rating, Field Violet [8, 18]: 100
Plant response rating, Field Violet [8, 19]: 98
Mustard, Wild plant response rating [9, 14]: 80
Plant response rating, Mustard, Wild [9, 15]: 100
Plant response rating, Mustard, Wild [9, 16]: 100
Plant response rating (scale of 0 to 100), Mustard, Wild ([9]; Preemergence, 31 g ai/ha): 35
Plant response rating (scale of 0 to 100), Mustard, Wild ([9]; Preemergence, 62 g ai/ha): 98
Plant response rating, Mustard, Wild [9, 17]: 100
Plant response rating, Mustard, Wild [9, 18]: 90
Plant response rating, Mustard, Wild [9, 19]: 95
Oat, Wild plant response rating [10, 14]: 75
Plant response rating, Oat, Wild [10, 15]: 98
Plant response rating, Oat, Wild [10, 16]: 100
Plant response rating (scale of 0 to 100), Oat, Wild ([10]; Preemergence, 31 g ai/ha): 75
Plant response rating (scale of 0 to 100), Oat, Wild ([10]; Preemergence, 62 g ai/ha): 80
Plant response rating, Oat, Wild [10, 17]: 85
Plant response rating, Oat, Wild [10, 18]: 98
Plant response rating, Oat, Wild [10, 19]: 90
Oilseed Rape plant response rating [11, 14]: 0
Plant response rating, Oilseed Rape [11, 15]: 15
Plant response rating, Oilseed Rape [11, 16]: 70
Plant response rating (scale of 0 to 100), Oilseed Rape ([11]; Preemergence, 31 g ai/ha): 0
Plant response rating (scale of 0 to 100), Oilseed Rape ([11]; Preemergence, 62 g ai/ha): 0
Plant response rating, Oilseed Rape [11, 17]: 0
Plant response rating, Oilseed Rape [11, 18]: 0
Plant response rating, Oilseed Rape [11, 19]: 5
Radish, Wild plant response rating [12, 14]: 65
Plant response rating, Radish, Wild [12, 15]: 75
Plant response rating, Radish, Wild [12, 16]: 95
Plant response rating (scale of 0 to 100), Radish, Wild ([12]; Preemergence, 31 g ai/ha): 0
Plant response rating (scale of 0 to 100), Radish, Wild ([12]; Preemergence, 62 g ai/ha): 65
Plant response rating, Radish, Wild [12, 17]: 90
Plant response rating, Radish, Wild [12, 18]: 95
Plant response rating, Radish, Wild [12, 19]: 75
Wheat, Spring plant response rating [13, 14]: 25
Plant response rating, Wheat, Spring [13, 15]: 40
Plant response rating, Wheat, Spring [13, 16]: 50
Plant response rating (scale of 0 to 100), Wheat, Spring ([13]; Preemergence, 31 g ai/ha): 20
Plant response rating (scale of 0 to 100), Wheat, Spring ([13]; Preemergence, 62 g ai/ha): 35
Plant response rating, Wheat, Spring [13, 17]: 60
Plant response rating, Wheat, Spring [13, 18]: 70
Plant response rating, Wheat, Spring [13, 19]: 35
